Source: US11427528B2 (Zhejiang University of Technology, priority 2016, dated 2022)
“Also recorded” adds a separate entry of the source. Where two headings read alike, the source gives them in different places.

Legend:
[1] = Stability experiment, light exposure (XRPD); type: physicochemical; conditions: 4500±500 lx, 25° C., open petri dish, XRPD compared with 0th day
Experimental: (§1) The instrument used for collecting X-ray powder diffraction (XRPD) patterns is Bruker D8 Advance diffractometer. The samples are tested at room temperature under the following conditions: 2θ scan range, 3-40°; step size, 0.02°/step; speed, 0.2 s/step.
(§2) They were placed at 4500±500 lx light exposure, and 90±5% RH humidity chamber at 25° C., respectively. The XRPD results of the 5th day and 10th day were compared with that of the 0th day.

[2] = Grinding test in ball mill (XRPD); type: physicochemical; conditions: 20 Hz, 100 mg, XRPD compared with unground sample
Experimental: as §1

[3] = Stability experiment, high humidity (XRPD); type: physicochemical; conditions: 90±5% RH, 25° C., open petri dish, XRPD compared with 0th day
Experimental: as §1, §2

[4] = cited from earlier work
[5] = Storage stability at room temperature; type: physicochemical; conditions: 3 months

| SMILES | Crystalline form after light exposure for 10 days [1] | Crystalline form after grinding for 10 min [2] | Crystalline form after high humidity for 10 days [3] | Form change at room temperature ([4]; in one day at room temperature) | Form change at room temperature ([4]; after two days at room temperature) | Form change after mechanical grinding ([4]; mechanical grinding) | Stability at room temperature [5] |
| --- | --- | --- | --- | --- | --- | --- | --- |
| CC(C)OC(=O)C(C)(C)Oc1ccc(C(=O)c2ccc(Cl)cc2)cc1 [Form I, reference compound] | Form I | Form I | Form I | – | – | – | – |
| CC(C)OC(=O)C(C)(C)Oc1ccc(C(=O)c2ccc(Cl)cc2)cc1 [Form III] | – | – | – | transformed to Form II and Form I | – | – | – |
| CC(C)OC(=O)C(C)(C)Oc1ccc(C(=O)c2ccc(Cl)cc2)cc1 [Form II] | – | – | – | – | transformed to Form I | transformed to Form I | – |
| CC(C)OC(=O)C(C)(C)Oc1ccc(C(=O)c2ccc(Cl)cc2)cc1 [Form IV] | does not change its crystalline form; also recorded: Form IV | does not change its crystalline form; also recorded: Form IV | does not change its crystalline form; also recorded: Form IV | – | – | – | remains stable |
